Columns and labels:
[1] = test system: NCI-H522; assay: NCI60 screen, Sulforhodamine B assay; assay type: cell-based, human; conditions: 10 μM phenoxybenzamine
Description: (§1) The results of these studies were included in an application for the screening of PBZ in the National Cancer Institute NCI60 screening program (https://dtp.cancer.gov/discovery_development/nci-60); they measured its effects on growth in cultures of 60 human tumors. This initial screen was conducted at only one drug concentration, 10 μM. We supplied the United States Pharmacopeial reference standard of PBZ-hydrochloride in powder form. The NCI60 standard procedure for dissolution of a synthetic molecule like PBZ involved initial dilution in 9:1 dimethyl sulfoxide (DMSO): glycerol at a concentration of 4 mM; the solution was then diluted 1:200 with complete culture medium (RPMI 1640 medium containing 5% fetal calf serum (FCS), 2 mM L-glutamine and 50 μg/ml gentamicin to give a final concentration of 20 μM; 100 μl of the drug-medium mixture was added to 100 μl of the cell cultures already in complete medium. The microtiter plates were incubated for 48 hr at 37°C, 5% CO2, 95% air, and 100% relative humidity (see S1 Appendix for further details).
(§2) The reason for the lack of activity after dissolution in DMSO has not been pursued further, but DMSO was eliminated in all subsequent assay systems.

[2] = test system: OVCAR-8; assay: NCI60 screen, Sulforhodamine B assay; assay type: cell-based, human; conditions: 10 μM phenoxybenzamine
Description: as §1, §2

[3] = test system: PC-3; assay: NCI60 screen, Sulforhodamine B assay; assay type: cell-based, human; conditions: 10 μM phenoxybenzamine
Description: as §1, §2

[4] = test system: RPMI 8226; assay: NCI60 screen, Sulforhodamine B assay; assay type: cell-based, human; conditions: 10 μM phenoxybenzamine
Description: as §1, §2

[5] = test system: T47D; assay: NCI60 screen, Sulforhodamine B assay; assay type: cell-based, human; conditions: 10 μM phenoxybenzamine
Description: as §1, §2

[6] = test system: UACC-257; assay: NCI60 screen, Sulforhodamine B assay; assay type: cell-based, human; conditions: 10 μM phenoxybenzamine
Description: as §1, §2

[7] = test system: CNXF U-251; assay: Oncotest CellTiter-Blue cell viability assay, 72 hours; assay type: cell-based, human
Description: (§3) Further studies with varying drug concentrations on selected human cell lines, in most cases those studied in the NCI60 screen, were conducted by Oncotest GmbH laboratories, Freiburg, Germany; Oncotest is a division of Charles River Laboratories. The dissolution procedure for PBZ and the cell culture […] was 72 hours; anti-tumor activity was determined with the CellTiter-Blue® Cell Viability Assay, Promega, Mannheim, Germany. The 50% Inhibitory (IC50) concentrations were determined. The results are the average of duplicate assays. Paclitaxel was included as a reference compound to confirm the integrity of the assays. See S1 Appendix for further details.
(§4) “Cell lines were routinely passaged once or twice weekly and maintained in culture for up to 20 passages. Cells were grown at 37°C in a humidified atmosphere with 5% CO2 in RPMI 1640 medium (25 mM HEPES, with L-glutamine, #FG1385, Biochrom, Berlin, Germany) supplemented with 10% (v/v) fetal calf serum (Sigma, Taufkirchen, Germany) and 0.1 mg/mL gentamicin (Life Technologies, Karlsruhe, Germany).”

[8] = test system: LXFA NCI-H522; assay: as above; assay type: cell-based, human
Description: as §3, §4

[9] = test system: LYXF DLBC SU-DHL-1; assay: as above; assay type: cell-based, human
Description: as §3, §4

[10] = test system: PRXF PC-3; assay: as above; assay type: cell-based, human
Description: as §3, §4

[11] = molecular target: T1, HDAC6 (Homo sapiens, UniProt Q9UBN7); assay: Fluorogenic HDAC deacetylase assay (BPS Bioscience); assay type: biochemical
T1 construct: purchased BPS Bioscience 50006

[12] = molecular target: T2, HDAC10 (Homo sapiens, UniProt Q969S8); assay: as above; assay type: biochemical; conditions: read-out: % inhibition @ 10 uM
T2 construct: purchased BPS Bioscience 50060

[13] = test system: cultures of 60 human tumors; assay: NCI60 human tumor culture screen, initial study with DMSO dissolution; assay type: cell-based; conditions: initially dissolved in DMSO
Description: as §1

[14] = test system: CFA-affected animals; design: method as in PMID 20846436; conditions: cited from earlier work
[15] = CNXF U-251, 1% FCS, study P495C
[16] = CNXF U-251, 10% FCS, study P495A
[17] = LXFA NCI-H522, 1% FCS, study P495C
[18] = LXFA NCI-H522, 10% FCS, study P495A
[19] = LXFA NCI-H522, 10% FCS, study P495B
[20] = LYXF SU-DHL-1, 1% FCS, study P495C
[21] = LYXF SU-DHL-1, 10% FCS, study P495B
[22] = PRXF PC-3, 10% FCS, study P495A
[23] = PRXF PC-3, 10% FCS, study P495B

T1 sequence (Q9UBN7 whole entry): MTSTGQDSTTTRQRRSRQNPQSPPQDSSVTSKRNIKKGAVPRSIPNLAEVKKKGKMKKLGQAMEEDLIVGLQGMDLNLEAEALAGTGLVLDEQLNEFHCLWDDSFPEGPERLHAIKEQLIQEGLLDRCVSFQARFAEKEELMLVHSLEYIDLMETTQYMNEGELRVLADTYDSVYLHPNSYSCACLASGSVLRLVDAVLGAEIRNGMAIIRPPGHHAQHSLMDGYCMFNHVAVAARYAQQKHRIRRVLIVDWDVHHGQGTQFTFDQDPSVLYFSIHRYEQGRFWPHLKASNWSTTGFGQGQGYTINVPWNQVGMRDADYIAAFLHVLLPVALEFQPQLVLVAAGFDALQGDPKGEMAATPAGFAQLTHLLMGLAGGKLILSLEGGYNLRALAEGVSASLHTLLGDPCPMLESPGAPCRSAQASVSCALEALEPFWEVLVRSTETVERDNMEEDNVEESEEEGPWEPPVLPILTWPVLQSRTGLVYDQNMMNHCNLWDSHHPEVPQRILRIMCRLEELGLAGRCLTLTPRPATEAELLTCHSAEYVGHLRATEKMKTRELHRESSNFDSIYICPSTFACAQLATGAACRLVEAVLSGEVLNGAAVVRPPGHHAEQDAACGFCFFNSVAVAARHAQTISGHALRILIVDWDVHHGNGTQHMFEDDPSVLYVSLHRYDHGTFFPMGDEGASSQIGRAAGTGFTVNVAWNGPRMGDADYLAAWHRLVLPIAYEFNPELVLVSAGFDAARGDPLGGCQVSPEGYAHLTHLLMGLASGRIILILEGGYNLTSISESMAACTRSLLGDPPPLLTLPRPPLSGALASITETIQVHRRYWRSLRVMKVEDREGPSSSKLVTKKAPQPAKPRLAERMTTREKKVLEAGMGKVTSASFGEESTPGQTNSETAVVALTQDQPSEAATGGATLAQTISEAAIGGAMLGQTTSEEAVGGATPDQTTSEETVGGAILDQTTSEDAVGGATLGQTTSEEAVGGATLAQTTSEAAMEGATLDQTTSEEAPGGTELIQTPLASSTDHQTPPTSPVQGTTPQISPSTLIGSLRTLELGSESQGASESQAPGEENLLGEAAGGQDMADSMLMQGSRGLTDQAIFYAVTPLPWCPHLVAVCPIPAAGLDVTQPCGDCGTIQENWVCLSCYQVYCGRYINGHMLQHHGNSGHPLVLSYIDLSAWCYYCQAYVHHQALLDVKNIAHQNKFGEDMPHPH
T2 sequence (Q969S8 whole entry): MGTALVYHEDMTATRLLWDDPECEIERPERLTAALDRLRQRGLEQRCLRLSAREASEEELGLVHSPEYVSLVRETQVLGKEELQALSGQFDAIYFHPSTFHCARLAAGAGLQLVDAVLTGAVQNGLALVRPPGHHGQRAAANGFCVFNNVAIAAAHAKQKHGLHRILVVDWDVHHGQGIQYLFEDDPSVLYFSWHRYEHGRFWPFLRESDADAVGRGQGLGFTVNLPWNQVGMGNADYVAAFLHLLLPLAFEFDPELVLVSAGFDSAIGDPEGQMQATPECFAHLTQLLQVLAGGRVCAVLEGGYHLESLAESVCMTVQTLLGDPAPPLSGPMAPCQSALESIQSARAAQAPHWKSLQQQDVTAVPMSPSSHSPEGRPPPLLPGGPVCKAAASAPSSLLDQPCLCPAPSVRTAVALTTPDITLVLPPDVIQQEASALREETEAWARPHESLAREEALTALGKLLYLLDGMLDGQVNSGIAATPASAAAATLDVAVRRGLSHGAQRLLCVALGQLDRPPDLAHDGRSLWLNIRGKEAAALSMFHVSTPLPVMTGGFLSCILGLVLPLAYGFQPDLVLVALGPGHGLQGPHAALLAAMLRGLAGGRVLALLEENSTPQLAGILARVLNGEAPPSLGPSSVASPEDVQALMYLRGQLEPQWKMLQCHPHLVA

CC(COc1ccccc1)N(CCCl)Cc1ccccc1 (stereo not drawn) [PBZ, phenoxybenzamine]
Percent cell growth in NCI60 screen with 5% FCS (48 hr incubation) [1]: 73% | Percent cell growth in NCI60 screen with 5% FCS (48 hr incubation) [2]: 53% | Percent cell growth in NCI60 screen with 5% FCS (48 hr incubation) [3]: 63% | Percent cell growth in NCI60 screen with 5% FCS (48 hr incubation) [4]: 60% | Percent cell growth in NCI60 screen with 5% FCS (48 hr incubation) [5]: 60% | Percent cell growth in NCI60 screen with 5% FCS (48 hr incubation) [6]: 76% | Test/Control (%) at Drug Concentration [uM] 1,0E+00 [7, 15]: 98% | Test/Control (%) at Drug Concentration [uM] 1,0E+01 [7, 15]: 102% | Test/Control (%) at Drug Concentration [uM] 1,0E+02 [7, 15]: 36% | Test/Control (%) at Drug Concentration [uM] 3,2E+00 [7, 15]: 102% | Test/Control (%) at Drug Concentration [uM] 3,2E+01 [7, 15]: 98% | Test/Control (%) at Drug Concentration [uM] 1,0E+00 [7, 16]: 92% | Test/Control (%) at Drug Concentration [uM] 1,0E+01 [7, 16]: 103% | Test/Control (%) at Drug Concentration [uM] 1,0E+02 [7, 16]: 98% | Test/Control (%) at Drug Concentration [uM] 1,0E-01 [7, 16]: 90% | Test/Control (%) at Drug Concentration [uM] 1,0E-02 [7, 16]: 90% | Test/Control (%) at Drug Concentration [uM] 3,2E+00 [7, 16]: 94% | Test/Control (%) at Drug Concentration [uM] 3,2E+01 [7, 16]: 118% | Test/Control (%) at Drug Concentration [uM] 3,2E-01 [7, 16]: 93% | Test/Control (%) at Drug Concentration [uM] 3,2E-02 [7, 16]: 93% | Test/Control (%) at Drug Concentration [uM] 3,2E-03 [7, 16]: 85% | IC50 ([7]; Homo sapiens, CNXF U-251 CNS, 1% FCS): 83.1 µM | Percent cell growth in Oncotest screen with 10% FCS (72 hr incubation) ([8]; 10 μM phenoxybenzamine, NCI-H522): 108% | IC50 ([8]; Homo sapiens, LXFA NCI-H522 Non-small-cell lung, 1% FCS): 51.5 µM | Test/Control (%) at Drug Concentration [uM] 1,0E+00 [8, 17]: 99% | Test/Control (%) at Drug Concentration [uM] 1,0E+01 [8, 17]: 99% | Test/Control (%) at Drug Concentration [uM] 1,0E+02 [8, 17]: 6% | Test/Control (%) at Drug Concentration [uM] 3,2E+00 [8, 17]: 106% | Test/Control (%) at Drug Concentration [uM] 3,2E+01 [8, 17]: 89% | Test/Control (%) at Drug Concentration [uM] 1,0E+00 [8, 18]: 99% | Test/Control (%) at Drug Concentration [uM] 1,0E+01 [8, 18]: 108% | Test/Control (%) at Drug Concentration [uM] 1,0E+02 [8, 18]: 14% | Test/Control (%) at Drug Concentration [uM] 1,0E-01 [8, 18]: 96% | Test/Control (%) at Drug Concentration [uM] 1,0E-02 [8, 18]: 81% | Test/Control (%) at Drug Concentration [uM] 3,2E+00 [8, 18]: 107% | Test/Control (%) at Drug Concentration [uM] 3,2E+01 [8, 18]: 110% | Test/Control (%) at Drug Concentration [uM] 3,2E-01 [8, 18]: 98% | Test/Control (%) at Drug Concentration [uM] 3,2E-02 [8, 18]: 82% | Test/Control (%) at Drug Concentration [uM] 3,2E-03 [8, 18]: 76% | Test/Control (%) at Drug Concentration [uM] 1,0E+00 [8, 19]: 100% | Test/Control (%) at Drug Concentration [uM] 1,0E+01 [8, 19]: 93% | Test/Control (%) at Drug Concentration [uM] 1,0E+02 [8, 19]: 29% | Test/Control (%) at Drug Concentration [uM] 1,0E-01 [8, 19]: 100% | Test/Control (%) at Drug Concentration [uM] 1,0E-02 [8, 19]: 100% | Test/Control (%) at Drug Concentration [uM] 1,0E-03 [8, 19]: 100% | Test/Control (%) at Drug Concentration [uM] 3,2E+00 [8, 19]: 100% | Test/Control (%) at Drug Concentration [uM] 3,2E+01 [8, 19]: 97% | IC50 ([9]; Homo sapiens, LYXFDLBC SU-DHL-1 Lymphoma, 1% FCS): 29.5 µM | Test/Control (%) at Drug Concentration [uM] 1,0E+00 [9, 20]: 97% | Test/Control (%) at Drug Concentration [uM] 1,0E+01 [9, 20]: 91% | Test/Control (%) at Drug Concentration [uM] 1,0E+02 [9, 20]: 7% | Test/Control (%) at Drug Concentration [uM] 3,2E+00 [9, 20]: 96% | Test/Control (%) at Drug Concentration [uM] 3,2E+01 [9, 20]: 45% | Test/Control (%) at Drug Concentration [uM] 1,0E+00 [9, 21]: 98% | Test/Control (%) at Drug Concentration [uM] 1,0E+01 [9, 21]: 100% | Test/Control (%) at Drug Concentration [uM] 1,0E+02 [9, 21]: 0% | Test/Control (%) at Drug Concentration [uM] 1,0E-01 [9, 21]: 100% | Test/Control (%) at Drug Concentration [uM] 1,0E-02 [9, 21]: 100% | Test/Control (%) at Drug Concentration [uM] 1,0E-03 [9, 21]: 100% | Test/Control (%) at Drug Concentration [uM] 3,2E+00 [9, 21]: 100% | Test/Control (%) at Drug Concentration [uM] 3,2E+01 [9, 21]: 94% | Percent cell growth in Oncotest screen with 10% FCS (72 hr incubation) ([10]; 10 μM phenoxybenzamine, PC-3): 86% | IC50 ([10]; Homo sapiens, PRXF PC-3 Prostate, 1% FCS): 29.8 µM | Test/Control (%) at Drug Concentration [uM] 1,0E+00 ([10]; PRXF PC-3, 1% FCS, study P495C): 102% | Test/Control (%) at Drug Concentration [uM] 1,0E+01 ([10]; PRXF PC-3, 1% FCS, study P495C): 100% | Test/Control (%) at Drug Concentration [uM] 1,0E+02 ([10]; PRXF PC-3, 1% FCS, study P495C): 22% | Test/Control (%) at Drug Concentration [uM] 3,2E+00 ([10]; PRXF PC-3, 1% FCS, study P495C): 105% | Test/Control (%) at Drug Concentration [uM] 3,2E+01 ([10]; PRXF PC-3, 1% FCS, study P495C): 58% | Test/Control (%) at Drug Concentration [uM] 1,0E+00 [10, 22]: 86% | Test/Control (%) at Drug Concentration [uM] 1,0E+01 [10, 22]: 86% | Test/Control (%) at Drug Concentration [uM] 1,0E+02 [10, 22]: 52% | Test/Control (%) at Drug Concentration [uM] 1,0E-01 [10, 22]: 87% | Test/Control (%) at Drug Concentration [uM] 1,0E-02 [10, 22]: 83% | Test/Control (%) at Drug Concentration [uM] 3,2E+00 [10, 22]: 89% | Test/Control (%) at Drug Concentration [uM] 3,2E+01 [10, 22]: 82% | Test/Control (%) at Drug Concentration [uM] 3,2E-01 [10, 22]: 91% | Test/Control (%) at Drug Concentration [uM] 3,2E-02 [10, 22]: 87% | Test/Control (%) at Drug Concentration [uM] 3,2E-03 [10, 22]: 91% | Test/Control (%) at Drug Concentration [uM] 1,0E+00 [10, 23]: 89% | Test/Control (%) at Drug Concentration [uM] 1,0E+01 [10, 23]: 77% | Test/Control (%) at Drug Concentration [uM] 1,0E+02 [10, 23]: 49% | Test/Control (%) at Drug Concentration [uM] 1,0E-01 [10, 23]: 84% | Test/Control (%) at Drug Concentration [uM] 1,0E-02 [10, 23]: 88% | Test/Control (%) at Drug Concentration [uM] 1,0E-03 [10, 23]: 81% | Test/Control (%) at Drug Concentration [uM] 3,2E+00 [10, 23]: 92% | Test/Control (%) at Drug Concentration [uM] 3,2E+01 [10, 23]: 74% | IC50 [11]: 0.59 µM | inhibition at 10 µM [12]: 0% | biological effect in NCI60 screen [13]: essentially no biological effect | reversing the heightened pain sensitivity of the CFA-affected animals [14]: equipotent with the nonsteroidal anti-inflammatory drug, naproxen

Reference: article PMC5999115, “Anti-tumor activity of phenoxybenzamine and its inhibition of histone deacetylases” (PLoS ONE, 2018)
